# From ChEMBL document CHEMBL4706513, “New insight into 20(S)-ginsenoside Rh2 against T-cell acute lymphoblastic leukemia associated with the gut microbiota and the immune system” (2020)
# Activity calls are given as the source filed them. The calls are words filed in the database; no cut-off is given here.
# Key:
# [1] = tested on: Mus musculus; assay: Induction of intestinal homeostasis in SCID/NOD mouse xenografted with human Jurkat cells assessed as upregulation of secretion of IgA from B cells in colon at 40 mg/kg, po administered once a day for 3 weeks by western blot analysis; format: functional, organism-based; settings: dose 40.0 mg/kg/day
# [2] = tested on: Mus musculus; assay: Inhibition of intestinal dysbiosis in SCID/NOD mouse xenografted with human Jurkat cells assessed as increase in abundance of Akkermansia in cecum at 40 mg/kg, po administered once a day for 3 weeks by multiplexed 16S rRNA gene sequencing analysis; format: functional, organism-based; settings: dose 40.0 mg/kg/day
# [3] = tested on: Mus musculus; assay: Inhibition of intestinal dysbiosis in SCID/NOD mouse xenografted with human Jurkat cells assessed as decrease in abundance of Firmicutes in cecum at 40 mg/kg, po administered once a day for 3 weeks by multiplexed 16S rRNA gene sequencing analysis; format: functional, organism-based; settings: dose 40.0 mg/kg/day
# [4] = tested on: Mus musculus; assay: Inhibition of intestinal inflammation in SCID/NOD mouse xenografted with human Jurkat cells assessed as increase in TGFbeta level in colon at 40 mg/kg, po administered once a day for 3 weeks by ELISA; format: functional, organism-based; settings: dose 40.0 mg/kg/day
# [5] = tested on: Mus musculus; assay: Inhibition of intestinal dysbiosis in SCID/NOD mouse xenografted with human Jurkat cells assessed as increase in abundance of Bacteroidetes in cecum at 40 mg/kg, po administered once a day for 3 weeks by multiplexed 16S rRNA gene sequencing analysis; format: functional, organism-based; settings: dose 40.0 mg/kg/day
# [6] = tested on: Jurkat; assay: Antitumour activity against human Jurkat cells xenografted in SCID/NOD mouse assessed as reduction of inactivity and messy hair at 40 mg/kg, po administered once a day for 3 weeks; format: functional, organism-based; settings: dose 40.0 mg/kg/day
# [7] = tested on: Mus musculus; assay: Induction of intestinal homeostasis in SCID/NOD mouse xenografted with human Jurkat cells assessed as upregulation of ZO-1 mRNA levels in colon at 40 mg/kg, po administered once a day for 3 weeks by real time RT-PCR analysis; format: functional, organism-based; settings: dose 40.0 mg/kg/day
# [8] = tested on: Mus musculus; assay: Induction of intestinal homeostasis in SCID/NOD mouse xenografted with human Jurkat cells assessed as decrease in enlarged colon tissue at 40 mg/kg, po administered once a day for 3 weeks by AB-PAS staining based microscopic analysis; format: functional, organism-based; settings: dose 40.0 mg/kg/day
# [9] = tested on: Mus musculus; assay: Induction of immune response in SCID/NOD mouse xenografted with human Jurkat cells assessed as decrease in IL-4 level in spleen at 40 mg/kg, po administered once a day for 3 weeks by ELISA reader method; format: functional, organism-based; settings: dose 40.0 mg/kg/day
# [10] = tested on: Jurkat; assay: Antitumour activity against human Jurkat cells xenografted in SCID/NOD mouse assessed as proportion of CD3-positive cells in peripheral blood at 40 mg/kg, po administered once a day for 3 weeks by immunophenotyping based flow cytometry method (reference value: 18.81%); format: functional; settings: dose 40 mg/kg/day
# [11] = tested on: Mus musculus; assay: In vivo inhibition of mTOR phosphorylation at Ser2448 residue in spleen of SCID/NOD mouse xenografted with human Jurkat cells at 40 mg/kg, po administered once a day for 3 weeks by Western blot method; format: functional, organism-based; settings: dose 40.0 mg/kg/day
# [12] = tested on: Mus musculus; assay: Inhibition of intestinal inflammation in SCID/NOD mouse xenografted with human Jurkat cells assessed as decrease in IL1beta level in colon at 40 mg/kg, po administered once a day for 3 weeks by ELISA; format: functional, organism-based; settings: dose 40.0 mg/kg/day
# [13] = tested on: Mus musculus; assay: Induction of immune response in SCID/NOD mouse xenografted with human Jurkat cells assessed as decrease in IL-10 level in spleen at 40 mg/kg, po administered once a day for 3 weeks by ELISA reader method; format: functional, organism-based; settings: dose 40.0 mg/kg/day
# [14] = tested on: Mus musculus; assay: Induction of intestinal homeostasis in SCID/NOD mouse xenografted with human Jurkat cells assessed as decrease of enlargement of epithelial cells and infiltration of inflammatory cells in the colon at 40 mg/kg, po administered once a day for 3 weeks by Hand E staining based microscopic analysis; format: functional, organism-based; settings: dose 40.0 mg/kg/day
# [15] = tested on: Mus musculus; assay: Induction of intestinal homeostasis in SCID/NOD mouse xenografted with human Jurkat cells assessed as reduction in crypt depth in colon at 40 mg/kg, po administered once a day for 3 weeks by AB-PAS staining based microscopic analysis; format: functional, organism-based; settings: dose 40.0 mg/kg/day
# [16] = tested on: Mus musculus; assay: Induction of intestinal homeostasis in SCID/NOD mouse xenografted with human Jurkat cells assessed as increase in Reg3g expression in colon at 40 mg/kg, po administered once a day for 3 weeks by Western blot analysis; format: functional, organism-based; settings: dose 40.0 mg/kg/day
# [17] = tested on: Mus musculus; assay: Inhibition of intestinal inflammation in SCID/NOD mouse xenografted with human Jurkat cells assessed as increase in IL-10 level in colon at 40 mg/kg, po administered once a day for 3 weeks by ELISA; format: functional, organism-based; settings: dose 40.0 mg/kg/day
# [18] = tested on: Mus musculus; assay: Induction of immune response in SCID/NOD mouse xenografted with human Jurkat cells assessed as increase in IL-2 level in spleen at 40 mg/kg, po administered once a day for 3 weeks by ELISA reader method; format: functional, organism-based; settings: dose 40.0 mg/kg/day
# [19] = tested on: Mus musculus; assay: Induction of immune response in SCID/NOD mouse xenografted with human Jurkat cells assessed as increase in NK cells in spleen at 40 mg/kg, po administered once a day for 3 weeks by ELISA reader method; format: functional, organism-based; settings: dose 40.0 mg/kg/day
# [20] = tested on: Mus musculus; assay: Induction of intestinal homeostasis in SCID/NOD mouse xenografted with human Jurkat cells assessed as increase in Reg3b expression in colon at 40 mg/kg, po administered once a day for 3 weeks by Western blot analysis; format: functional, organism-based; settings: dose 40.0 mg/kg/day
# [21] = tested on: Mus musculus; assay: Inhibition of intestinal dysbiosis in SCID/NOD mouse xenografted with human Jurkat cells assessed as decrease in abundance of parabacteroides in cecum at 40 mg/kg, po administered once a day for 3 weeks by multiplexed 16S rRNA gene sequencing analysis; format: functional, organism-based; settings: dose 40.0 mg/kg/day
# [22] = tested on: Mus musculus; assay: Induction of intestinal homeostasis in SCID/NOD mouse xenografted with human Jurkat cells assessed as upregulation of claudin-1 mRNA levels in colon at 40 mg/kg, po administered once a day for 3 weeks by real time RT-PCR analysis; format: functional, organism-based; settings: dose 40.0 mg/kg/day
# [23] = tested on: Jurkat; assay: Antitumour activity against human Jurkat cells xenografted in SCID/NOD mouse assessed as increase in body weight at 40 mg/kg, po administered once a day for 3 weeks; format: functional, organism-based; settings: dose 40.0 mg/kg/day
# [24] = tested on: Mus musculus; assay: Induction of immune response in SCID/NOD mouse xenografted with human Jurkat cells assessed as increase in IFN-gamma level in spleen at 40 mg/kg, po administered once a day for 3 weeks by ELISA reader method; format: functional, organism-based; settings: dose 40.0 mg/kg/day
structure (smiles),measurement,setting,value
CC(C)=CCC[C@](C)(O)[C@H]1CC[C@]2(C)[C@@H]1[C@H](O)C[C@@H]1[C@@]3(C)CC[C@H](O[C@@H]4O[C@H](CO)[C@@H](O)[C@H](O)[C@H]4O)C(C)(C)[C@@H]3CC[C@]12C [GINSENOSIDE RH2],Activity,[1],Active
same,inhibition,[2],Active
same,inhibition,[3],Active
same,inhibition,[4],Active
same,inhibition,[5],Active
same,Activity,[6],Active
same,Activity,[7],Active
same,Activity,[8],Active
same,Activity,[9],Active
same,Activity,[10],5.78%
same,inhibition,[11],Active
same,inhibition,[12],Active
same,Activity,[13],Active
same,Activity,[14],Active
same,Activity,[15],Active
same,Activity,[16],Active
same,inhibition,[17],Active
same,Activity,[18],Active
same,Activity,[19],Active
same,Activity,[20],Active
same,inhibition,[21],Active
same,Activity,[22],Active
same,Activity,[23],Active
same,Activity,[24],Active
